In patent publication US8735414B2 (priority 2009, dated 2014):

Columns and labels:
[1] = tested on: bicistronic HCV replicon (replicon RNA, GenBank Accession No. AJ242654); test: HCV Replicon Assay; type: cell-based; details: Hepatitis C virus, 72 h, read-out: Replicon IC50

CCCn1c(-c2ccc(S(=O)(=O)N[C@H](C)C(F)(F)F)cn2)c(C#N)c2ccc(F)cc21 [compound 217, 6-(3-cyano-6-fluoro-1-propyl-1H-indol-2-yl)-N-[(2R)-1,1,1-trifluoropropan-2-yl]pyridine-3-sulfonamide]
melting point: 195 to 197 °C | IC50 [1]: 2000 to 5000 nM

COc1ccc2c(C#N)c(-c3ncc(S(=O)(=O)NC(CF)CF)cn3)n(C3CCCCC3)c2c1 [compound 520, 2-(3-cyano-1-cyclohexyl-6-methoxy-1H-indol-2-yl)-N-(1,3-difluoropropan-2-yl)pyrimidine-5-sulfonamide]
melting point: 209 to 215 °C | IC50 [1]: 500 to 2000 nM

Cc1ccc2cc(-c3ccc(S(=O)(=O)NC(CF)CF)cn3)n(C3CCC3)c2c1 [compound 511, 6-(1-cyclobutyl-6-methyl-1H-indol-2-yl)-N-(1,3-difluoropropan-2-yl)pyridine-3-sulfonamide]
melting point: 137 to 139 °C | IC50 [1]: < 500 nM

C[C@H](NS(=O)(=O)c1ccc(-c2c(C#N)c3ccc(OC(F)F)cc3n2C2CCCCC2)nc1)C(F)(F)F [compound 341, 6-[3-cyano-1-cyclohexyl-6-(difluoromethoxy)-1H-indol-2-yl]-N-[(2S)-1,1,1-trifluoropropan-2-yl]pyridine-3-sulfonamide]
melting point: 149 to 151 °C | IC50 [1]: < 500 nM

Cc1cc2c(cc1Br)c(C#N)c(-c1ccc(S(=O)(=O)N[C@H](C)C(F)(F)F)cn1)n2C1CCCC1 [compound 692, 6-(5-bromo-3-cyano-1-cyclopentyl-6-methyl-1H-indol-2-yl)-N-[(2R)-1,1,1-trifluoropropan-2-yl]pyridine-3-sulfonamide]
melting point: 226.5 to 227 °C | IC50 [1]: < 500 nM

N#Cc1c(-c2ccc(S(=O)(=O)NC(CF)CF)cn2)n(C2CCCC2)c2cc(OC(F)F)ccc12 [compound 49, 6-[3-cyano-1-cyclopentyl-6-(difluoromethoxy)-1H-indol-2-yl]-N-(1,3-difluoropropan-2-yl)pyridine-3-sulfonamide]
melting point: 177 to 178 °C | IC50 [1]: < 500 nM

CCc1cc2c(cc1F)c(C(N)=O)c(-c1ccc(S(=O)(=O)N[C@@H](C)C(F)(F)F)cn1)n2-c1ccnc(C)n1 [compound 982, 6-ethyl-5-fluoro-1-(2-methylpyrimidin-4-yl)-2-(5-{[(2S)-1,1,1-trifluoropropan-2-yl]sulfamoyl}pyridin-2-yl)-1H-indole-3-carboxamide]
melting point: 115 to 120 °C | IC50 [1]: 2000 to 5000 nM

CC(C)S(=O)(=O)Nc1ccc(-c2c(C#N)c3ccc(OCC(F)(F)F)cc3n2CC2CC2)nc1 [compound 283, N-{6-[3-cyano-1-(cyclopropylmethyl)-6-(2,2,2-trifluoroethoxy)-1H-indol-2-yl]pyridin-3-yl}propane-2-sulfonamide]
melting point: 188 to 193 °C | IC50 [1]: 2000 to 5000 nM

Cc1cc2c(cc1F)c(C(N)=O)c(-c1ccc(S(=O)(=O)N[C@@H](C)C(F)(F)F)cn1)n2-c1ccc(F)cn1 [compound 876, 5-fluoro-1-(5-fluoropyridin-2-yl)-6-methyl-2-(5-{[(2S)-1,1,1-trifluoropropan-2-yl]sulfamoyl}pyridin-2-yl)-1H-indole-3-carboxamide]
melting point: 224 to 228 °C | IC50 [1]: < 500 nM

CC(C)n1c(-c2ncc(S(=O)(=O)N[C@@H](C)C(F)(F)F)cn2)c(C#N)c2ccc(OC(F)F)cc21 [compound 399, 2-[3-cyano-6-(difluoromethoxy)-1-(propan-2-yl)-1H-indol-2-yl]-N-[(2S)-1,1,1-trifluoropropan-2-yl]pyrimidine-5-sulfonamide]
melting point: 219 to 221 °C | IC50 [1]: < 500 nM

C[C@H](NS(=O)(=O)c1cnc(-c2c(C#N)c3ccc(OC(F)F)cc3n2CC2CC2)nc1)C(F)(F)F [compound 398, 2-[3-cyano-1-(cyclopropylmethyl)-6-(difluoromethoxy)-1H-indol-2-yl]-N-[(2S)-1,1,1-trifluoropropan-2-yl]pyrimidine-5-sulfonamide]
melting point: 211 to 212 °C | IC50 [1]: < 500 nM
